Columns and labels:
[1] = tested on: zebrafish; assay: Color preference of zebrafish in blue/yellow color maze after alcohol; format: in vivo, zebrafish (Danio rerio); conditions: zebrafish 25 days after birth; alcohol 0.5%, 1%, 2% in egg water vs 0% comparison group; FIG. 7
Excerpt: A method for detecting bioactive materials using the innate color preference instinct of fish based on the color recognition and color preference results according to the visual recognition of zebrafish was developed. In order to identify whether a method for screening a bioactive material according to the present invention may effectively detect candidate materials, alcohol was used as an example of the bioactive material to identify whether the color preference of zebrafish is changed between before applied to zebrafish and after applied to the zebrafish. This utilizes the common sense that humans' recognition ability is changed depending on the blood alcohol concentration.
A specific experimental method was as follows. A straight line-shaped screening device (color maze) with a combination of blue and yellow was prepared, and 40 zebrafish, 25 days after birth, were used. Every 10 of the fish were put in each straight-line groove, egg water of 5 ml was used, and then, video-recording was performed for 30 minutes using a video recorder. As predicted, many of the zebrafish moved to blue that is a preferred color of zebrafish. […] The number of zebrafish in each color section was counted through the video recorded over five times in total.

[2] = tested on: zebrafish; assay: Screening for acetylcholine neurotransmission-related materials by innate color preference (blue/yellow color maze); format: in vivo, zebrafish (Danio rerio); conditions: acetylcholinesterase inhibitors vs egg water; five days old fish; FIG. 9(A)-(C)
Excerpt: For this experiment, a straight line-shaped screening device (color maze) was used as a screening device, and blue and yellow that most differ in color preference were used. Further, five days old young fish born from the same male and female were used in the channels of the device and divided into a comparison group and an experimental group in this experiment. The number of entities used in the comparison group and the experimental group was 10 per channel. The final volume of egg water used in each channel was fitted into 4 mL. Considering the direction for illumination and time of transmission of drug to nerves, video-recording was performed for 30 minutes, and then, sleeves were changed. Then, video-recording was resumed for 30 minutes. The number of entities in each of the sections with different colors was counted every two minutes and was processed statistically. As statistics, the significance of the comparison group and the experimental group was identified through the T-test (SPSS, USA).
For acetylcholine (Sigma), tacrine (Sigma), galantamine (Sigma), and caffeine (Sigma) as reagents administered to the experimental group, concentrates including acetylcholine of 1000 mM, tacrine of 20 mM, and galantamine of 10 mM were prepared using third distilled water. 10 entities, five days after fertilization, were put in the channel of each color maze, and egg water of 4 mL was used. […]

SMILES	ability of distinguishing colors (number of zebrafish in each color section) [1]	change in color preference (number of young zebrafish in blue and yellow sections) [2]
CCO [alcohol]	as the alcohol concentration increases, the number of zebrafish that can distinguish colors decreases	–
Nc1c2c(nc3ccccc13)CCCC2 [tacrine, 1,2,3,4-tetrahydro-9-acridine amine]	–	moved to yellow that is their avoided color

From patent US20160310619A1, “SCREENING METHODS FOR ACETYLCHOLINE RELATED BIOACTIVE MATERIALS USING INHERITED COLOR PREFERENCE OF FISH” (GENOMIC DESIGN BIOENGINEERING COMPANY, priority 2014, published 2016)
